# Measured values as given in patent US9376442B2, “Methylpyrrolopyrimidinecarboxamides” (Takeda GmbH, priority 2009, dated 2016).
# Key:
# [1] = molecular target: T1, PDE4B1 (Homo sapiens, UniProt Q07343); assay: Inhibition of type 4 phosphodiesterase (PDE4) activity, modified SPA test with recombinant PDE4B1 expressed in SF21 insect cells; type: biochemical; settings: recombinant PDE4B1, 0.5 μM cAMP, read-out: PDE4B1 inhibitory values [measured as −log IC50 (mol/l)] (converted)
# T1 construct: made in house; host or cells: SF21 insect cells (baculovirus; pCRBac vector), 1000 x g supernatant of homogenate
# T1 sequence (Q07343 whole entry): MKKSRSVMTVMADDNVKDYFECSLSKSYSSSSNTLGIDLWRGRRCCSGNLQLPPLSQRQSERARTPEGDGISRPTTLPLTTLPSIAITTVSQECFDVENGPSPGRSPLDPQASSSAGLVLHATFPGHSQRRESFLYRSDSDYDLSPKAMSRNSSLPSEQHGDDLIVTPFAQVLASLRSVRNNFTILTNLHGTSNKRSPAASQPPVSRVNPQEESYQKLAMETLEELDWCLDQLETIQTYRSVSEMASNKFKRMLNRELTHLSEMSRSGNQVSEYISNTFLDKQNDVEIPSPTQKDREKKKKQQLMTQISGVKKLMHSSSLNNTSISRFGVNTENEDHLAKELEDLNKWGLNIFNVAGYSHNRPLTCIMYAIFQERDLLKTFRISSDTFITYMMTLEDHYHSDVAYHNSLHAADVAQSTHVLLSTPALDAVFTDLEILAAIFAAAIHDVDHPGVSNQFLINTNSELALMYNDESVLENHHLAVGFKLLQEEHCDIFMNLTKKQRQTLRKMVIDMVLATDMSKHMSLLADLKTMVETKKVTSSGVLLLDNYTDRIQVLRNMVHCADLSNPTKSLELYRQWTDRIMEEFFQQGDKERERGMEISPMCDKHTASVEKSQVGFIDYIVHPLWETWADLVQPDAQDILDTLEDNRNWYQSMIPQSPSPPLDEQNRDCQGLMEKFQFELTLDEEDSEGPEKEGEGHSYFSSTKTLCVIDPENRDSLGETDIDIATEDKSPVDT
# Protocol: Method for Measuring Inhibition of the Type 4 Phosphodiesterase (PDE4) Activity:
# The PDE4B1 (GB no. L20966) was a gift of Prof. M. Conti (Stanford University, USA). It was amplified from the original plasmid (pCMV5) via PCR with primers Rb18 (5′-[…]-3′) and Rb10 (5′-[…]-3′) and cloned into the pCRBac vector (Invitrogen, Groningen, NL).
# The recombinant baculovirus was prepared by means of homologous recombination in SF9 insect cells. The expression plasmids were cotransfected with Baculo-Gold DNA (Pharmingen, Hamburg) using a standard protocol (Pharmingen, Hamburg). Wt virus-free recombinant virus supernatants were selected using plaque assay methods. After that, high-titre virus supernatants were prepared by amplifying 3 times. PDE4B1 was expressed in SF21 cells by infecting 2×10^6 cells/ml with an MOI (multiplicity of infection) between 1 and 10 in the serum-free medium Insect Express Sf9-S2 (PAA, Pasching, Austria). The cells were cultured at 28° C. for 48-72 hours, after which they were pelleted for 5-10 min at 1000×g and 4° C.
# The SF21 insect cells were resuspended, at a concentration of approx. 10^7 cells/ml, in ice-cold (4° C.) homogenization buffer (20 mM Tris, pH 8.2, containing the following additions: 140 mM NaCl, 3.8 mM KCl, 1 mM EGTA, 1 mM MgCl2, 10 mM (3-mercaptoethanol, 2 mM benzamidine, 0.4 mM Pefablock, 10 μM leupeptin, 10 μM pepstatin A, 5 μM trypsin inhibitor) and disrupted by ultrasonication. The homogenate was then centrifuged for 10 min at 1000×g and the supernatant was stored at −80° C. until subsequent use (see below). The protein content was determined by the Bradford method (BioRad, Munich) using BSA as the standard.
# PDE4B1 activity was inhibited by the compounds according to the present subject matter in a modified SPA (scintillation proximity assay) test, supplied by Amersham Biosciences (see procedural instructions “phosphodiesterase [3H]cAMP SPA enzyme assay, code TRKQ 7090”), carried out in 96-well microtitre plates (MTP's). The test volume is 100 μl and contains 20 mM Tris buffer (pH 7.4), 0.1 mg/ml of BSA, 5 mM Mg^2+, 0.5 μM cAMP (including about 50,000 cpm of [3H]cAMP), 1 μl of the respective substance dilution in DMSO and sufficient recombinant PDE (1000×g supernatant, see above) to ensure that 10-20% of the cAMP is converted under the said experimental conditions. […] After a preincubation of 5 min at 37° C., the reaction is started by adding the substrate (cAMP) and the assays are incubated for a further 15 min; after that, they are stopped by adding SPA beads (50 μl). In accordance with the manufacturer's instructions, the SPA beads had previously been resuspended in water, but were then diluted 1:3 (v/v) in water; the diluted solution also contains 3 mM IBMX to ensure a complete PDE activity stop. After the beads have been sedimented (>30 min), the MTP's are analyzed in commercially available luminescence detection devices. The corresponding IC50 values of the compounds for the inhibition of PDE4B1 activity are determined from the concentration-effect curves by means of non-linear regression.
# [2] = molecular target: T2, PDE5A1 (Homo sapiens, UniProt O76074); assay: Inhibition of type 5 phosphodiesterase (PDE5) activity, modified SPA test with human platelet lysate; type: biochemical; settings: 0.5 μM cGMP, read-out: PDE5A1 inhibitory values [measured as −log IC50 (mol/l)] (converted)
# T2 construct: from tissue; host or cells: human platelets from fresh donor blood (10,000 x g supernatant of sonicated lysate)
# Method in brief: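 Enzyme source is lysate from human platelets (10,000 g supernatant). Compound preincubated 5 min at 37° C in Tris pH 7.4 containing 1 μM motapizone and 10 nM of a PDE2 inhibitor. Reaction started with 0.5 μM cGMP ([3H] tracer) and run 15 min; SPA read-out, IC50 by non-linear regression.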
SMILES,IC50 [1] [nM],IC50 [2] [nM]
"CC(=O)N[C@H]1CC[C@@H](NC(=O)c2c(C)[nH]c3c(-c4cc(C)ccc4OCC4CC4)ncnc23)CC1 [Example E87, N-[cis-4-(acetylamino)cyclohexyl]-4-[2-(cyclopropylmethoxy)-5-methylphenyl]-6-methyl-5H-pyrrolo[3,2-d]pyrimidine-7-carboxamide]",< 100,< 1
"CC(=O)N[C@H]1CC[C@H](NC(=O)c2c(C)[nH]c3c(-c4cc(F)ccc4OCC4CC4)ncnc23)CC1 [Example E41, N-(trans-4-acetamidocyclohexyl)-4-[2-(cyclopropylmethoxy)-5-fluorophenyl]-6-methyl-5H-pyrrolo[3,2-d]pyrimidine-7-carboxamide]",< 100,< 1
"COCC(=O)N1CCC(NC(=O)c2c(C)[nH]c3c(-c4cc(OC)ccc4OCC4CC4)ncnc23)CC1 [Example E68, 4-[2-(Cyclopropylmethoxy)-5-methoxyphenyl]-N-[1-(methoxyacetyl)piperidin-4-yl]-6-methyl-5H-pyrrolo[3,2-d]pyrimidine-7-carboxamide]",100 to 1000,< 1
"CCc1ccc(OCC2CC2)c(-c2ncnc3c(C(=O)N[C@H]4CC[C@@H](NC(=O)COC)CC4)c(C)[nH]c23)c1 [Example E153, 4-[2-(Cyclopropylmethoxy)-5-ethylphenyl]-N-{cis-4-[(methoxyacetyl)amino]cyclohexyl}-6-methyl-5H-pyrrolo[3,2-d]pyrimidine-7-carboxamide]",100 to 1000,< 1
"CCOC(=O)N[C@H]1CC[C@H](NC(=O)c2c(C)[nH]c3c(-c4cc(F)ccc4OCC4CC4)ncnc23)CC1 [Example E44, Ethyl {trans-4-[({4-[2-(cyclopropylmethoxy)-5-fluorophenyl]-6-methyl-5H-pyrrolo[3,2-d]pyrimidin-7-yl}carbonyl)amino]cyclohexyl}carbamate]",< 100,< 1
"CCc1ccc(OCC2CC2)c(-c2ncnc3c(C(=O)NC4CCN(C(C)=O)CC4)c(C)[nH]c23)c1 [Example E145, N-(1-Acetylpiperidin-4-yl)-4-[2-(cyclopropylmethoxy)-5-ethylphenyl]-6-methyl-5H-pyrrolo[3,2-d]pyrimidine-7-carboxamide]",100 to 1000,< 1

# Results, then the compound that gave them:
IC50 [1] [nM],IC50 [2] [nM],SMILES
< 100,< 1,"CC(=O)N[C@H]1CC[C@H](NC(=O)c2c(C)[nH]c3c(-c4cc(C(F)F)ccc4OCC4CC4)ncnc23)[C@@H](C)C1 (relative stereo) [Example P139, N-[(1S*,2S*,4S*)-4-(Acetylamino)-2-methylcyclohexyl]-4-[2-(cyclopropylmethoxy)-5-(difluoromethyl)phenyl]-6-methyl-5H-pyrrolo[3,2-d]pyrimidine-7-carboxamide]"
< 100,< 1,"COCC(=O)N[C@H]1CC[C@H](NC(=O)c2c(C)[nH]c3c(-c4cc(C(F)F)ccc4OCC4CC4)ncnc23)CC1 [Example P8, 4-[2-(Cyclopropylmethoxy)-5-(difluoromethyl)phenyl]-N-{trans-4-[(methoxyacetyl)amino]cyclohexyl}-6-methyl-5H-pyrrolo[3,2-d]pyrimidine-7-carboxamide]"
100 to 1000,1 to 10,"CCc1ccc(OCC2CC2)c(-c2ncnc3c(C(=O)N[C@@H]4CN(C(=O)CO)C[C@H]4O)c(C)[nH]c23)c1 (relative stereo) [Example F97, 4-[2-(Cyclopropylmethoxy)-5-ethylphenyl]-N-[(3R*,4R*)-4-hydroxy-1-(hydroxyacetyl)pyrrolidin-3-yl]-6-methyl-5H-pyrrolo[3,2-d]pyrimidine-7-carboxamide]"
< 100,1 to 10,"CC(=O)N1C[C@@H](NC(=O)c2c(C)[nH]c3c(-c4cc(C(F)F)ccc4OCC4CC4)ncnc23)C[C@@H]1C [Example P24, N-[(3S,5S)-1-Acetyl-5-methylpyrrolidin-3-yl]-4-[2-(cyclopropylmethoxy)-5-(difluoromethyl)phenyl]-6-methyl-5H-pyrrolo[3,2-d]pyrimidine-7-carboxamide]"
< 100,< 1,"CC(=O)N[C@H]1CC[C@H](NC(=O)c2c(C)[nH]c3c(-c4cc(C(F)F)ccc4OCC4CC4)ncnc23)C1 [Example P89, N-[(1S,3S)-3-(Acetylamino)cyclopentyl]-4-[2-(cyclopropylmethoxy)-5-(difluoromethyl)phenyl]-6-methyl-5H-pyrrolo[3,2-d]pyrimidine-7-carboxamide]"
100 to 1000,< 1,"Cc1[nH]c2c(-c3cc(C(F)(F)F)ccc3OCC3CC3)ncnc2c1C(=O)NC1CCN(C(=O)[C@H](C)O)CC1 [Example F58, 4-[2-(Cyclopropylmethoxy)-5-(trifluoromethyl)phenyl]-N-{1-[(2S)-2-hydroxypropanoyl]piperidin-4-yl}-6-methyl-5H-pyrrolo[3,2-d]pyrimidine-7-carboxamide]"
< 100,< 1,"Cc1[nH]c2c(-c3cc(F)ccc3OCC3CC3)ncnc2c1C(=O)N[C@H]1CC[C@H](NC(=O)CO)CC1 [Example F25, 4-[2-(Cyclopropylmethoxy)-5-fluorophenyl]-N-[trans-4-(glycoloylamino)cyclohexyl]-6-methyl-5H-pyrrolo[3,2-d]pyrimidine-7-carboxamide]"
< 100,< 1,"CCC(=O)N[C@@H]1CC[C@@H](NC(=O)c2c(C)[nH]c3c(-c4cc(C(F)F)ccc4OCC4CC4)ncnc23)[C@H](F)C1 (relative stereo) [Example P160, 4-[2-(Cyclopropylmethoxy)-5-(difluoromethyl)phenyl]-N-[(1R*,2R*,4R*)-2-fluoro-4-(propanoylamino)cyclohexyl]-6-methyl-5H-pyrrolo[3,2-d]pyrimidine-7-carboxamide]"
< 100,< 1,"CC(=O)N[C@H]1CC[C@H](NC(=O)c2c(C)[nH]c3c(-c4cc(C(F)F)ccc4OCC4CC4)ncnc23)C[C@@H]1F (relative stereo) [Example P209, N-[(1S*,3S*,4S*)-4-(Acetylamino)-3-fluorocyclohexyl]-4-[2-(cyclopropylmethoxy)-5-(difluoromethyl)phenyl]-6-methyl-5H-pyrrolo[3,2-d]pyrimidine-7-carboxamide]"
100 to 1000,< 1,"COc1ccc(OCC2CC2)c(-c2ncnc3c(C(=O)NC4CCN(C(=O)[C@H](C)O)CC4)c(C)[nH]c23)c1 [Example F42, 4-[2-(Cyclopropylmethoxy)-5-methoxyphenyl]-N-{1-[(2S)-2-hydroxypropanoyl]piperidin-4-yl}-6-methyl-5H-pyrrolo[3,2-d]pyrimidine-7-carboxamide]"
< 100,1 to 10,"CCC(=O)N1C[C@@H](NC(=O)c2c(C)[nH]c3c(-c4cc(C(F)F)ccc4OCC4CC4)ncnc23)C[C@@H]1C [Example P25, 4-[2-(Cyclopropylmethoxy)-5-(difluoromethyl)phenyl]-6-methyl-N-[(3S,5S)-5-methyl-1-propanoylpyrrolidin-3-yl]-5H-pyrrolo[3,2-d]pyrimidine-7-carboxamide]"
100 to 1000,< 1,"COc1ccc(OCC2CC2)c(-c2ncnc3c(C(=O)N[C@H]4CC[C@H](NC(=O)CO)CC4)c(C)[nH]c23)c1 [Example F43, 4-[2-(Cyclopropylmethoxy)-5-methoxyphenyl]-N-[trans-4-(glycoloylamino)cyclohexyl]-6-methyl-5H-pyrrolo[3,2-d]pyrimidine-7-carboxamide]"
